Experimental data as given in PMC5082805 (PLoS ONE, 2016).
Where two headings read alike, the source gives them in different places. Where a SMILES comes first, the peptide text is derived from it. Bridges are numbered along the chain shown (N, C = ends). [ ]: non-standard residue; d: D form. Orn(iPr) = CC(C)NCCC[C@H](N)C(=O)O; Aad = N[C@@H](CCCC(=O)O)C(=O)O

Key:
[1] = test system: non-atherosclerotic (NA) and atherosclerotic (A) rabbits; test: Electrocardiogram monitoring during incremental infusion rates; format: in vivo, New Zealand White rabbits; settings: A and NA animals, NE finding at the highest rate tested (1 μg.kg^−1.min^−1)
Method: (§1) Following overnight fasting, the rabbits were pre-anesthetized intramuscularly using a mixture of 15 mg/kg ketamine hydrochloride (Imalgène 500®, Rhône Mérieux, Lyon, France) and 0.7 mg/kg xylazine hydrochloride (Rompun® 2%, KVP, Kiel, Germany). The animals were tracheotomized and maintained under isoflurane anesthesia (2% v/v isoflurane in oxygen [isoflurane: AErrane®, Baxter, Maurepas, France]). The electrocardiogram was monitored continuously (Lead II derivation) during surgery. A femoral vein was cannulated using a polyvinyl chloride catheter to administer selepressin, AVP, NE, or vehicle while a carotid artery was cannulated for blood sampling. A Millar catheter-tip transducer was introduced into the femoral artery to determine arterial pressure. The animals were infused intravenously using Ringer lactate (Lavoisier, Paris, France) at 2 mL/h.
AP and electrocardiogram signals were amplified (Hugo Sachs Elektronik, March-Hugstetten, Germany) and recorded continuously using a computerized data acquisition system (Notocord, Croissy-sur-Seine, France) with acquisition rates of 500 and 1000 Hz for arterial pressure and electrocardiogram, respectively.

[2] = test system: non-atherosclerotic (NA) and atherosclerotic (A) rabbits; test: Serum biomarkers of cardiac injury (ASAT, CK, cardiac troponin I); format: in vivo, New Zealand White rabbits; settings: at the end of administration of the highest infusion rate, n = 5
[3] = test system: non-atherosclerotic (NA) and atherosclerotic (A) rabbits; test: Hemodynamic dose-response to cumulative intravenous infusion rates in anesthetized rabbits; format: in vivo, New Zealand White rabbits; settings: incremental i.v. infusion rates, nonlinear regression, mean ± standard error of the mean
Method: Thirty male New Zealand White rabbits (2.6–3.6 kg, Centre d’élevage G. Achard de la Vente, St Mars d'Egrenne, France), aged 3–4 months were individually housed in stainless steel mesh cages (500 × 600 × 400 mm) at 19–25°C and ≥35% humidity with a 12-h light/dark cycle. Each animal received Bolapin (Huttepain Bouix, Le Mans, France) at approximately 60 g/day as standard diet (non-atherosclerotic animals) or supplemented with1% cholesterol for 6 weeks to induce atherosclerosis (both n = 15). The animals were fasted for at least 12 h before clinical laboratory blood sampling, on the day of the experiment, and before scheduled necropsy. Water was supplied ad libitum. On completion of cholesterol feeding, the animals were prepared surgically to determine cardiovascular variables and infused intravenously with selepressin, arginine vasopressin (AVP), or norepinephrine (NE) at incremental rates.
as §1
A left parasternal image window was used to obtain a long-axis view, visualizing the entire ascending aorta, the innominate artery branch, and the left common carotid arteries in the same plane. Prior to dosing, all of the animals (atherosclerotic [A] and non-atherosclerotic [NA]) were examined by 2-dimensional ultrasonography using a 15-MHz linear probe. The thoracic aorta was visualized at up to 30 frames/s using a 120-μm axial resolution. An adequate penetration depth was set to several centimeters beyond the far wall of the ascending aorta. Intima-media thickness (IMT) immediately proximal to the innominate artery branch site was determined in a consistent manner in each animal using the arterial branching points as anatomic landmarks.
Doppler ultrasonographic measurements were performed using Acuson Séquoia 526 color Doppler equipment (Siemens, Saint-Denis, France). Aortic flow measurements were performed from a trans-hepatic view for perfect alignment (cos(theta) of the Doppler equation ≈1). Time velocity integrals and aortic diameter were determined for each time point by aortic echography.
Aortic blood flow (ABF, mL/min) was calculated according to the following formula: ABF (mL/min) = SV (mL/beat)×HR (beats/min) where:
• HR: heart rate • SV (stroke volume, mL) = ITVAo (cm) × SAo (cm^2) • ITVAo: Integral time velocity of the aorta evaluated from the mean of three to five consecutive velocity waveforms (i.e., three to five heartbeats) • SAo (Section of the aorta) = (π × DAo^2)/4 • DAo: Aortic diameter (cm) determined by aortic echography close to the maximal velocity measurement site.
Before treatment, the animals (n = 5 for each drug and for A vs. NA) were infused with the corresponding vehicle (10 mM acetate buffer at 9% v/v in 0.9% NaCl for selepressin, 10 mM acetate buffer at 0.3% v/v in 0.9% NaCl for AVP, and in 0.9% NaCl for NE) at 1 mL.kg^−1.h^−1 for 15 min. Selepressin acetate, AVP, and NE were administered via the femoral vein. […]

[4] = Plasma bioanalysis at the time of maximum hemodynamic effect; settings: New Zealand White, rabbit, in vivo, iv; atherosclerotic (A) rabbits; incremental i.v. infusion; LC-MS/MS for selepressin and AVP, LC with colorimetric detection for NE; mean ± standard deviation, n = 5; SD; read-out: maximum plasma concentration
Method: Blood for bioanalysis was sampled from all of the animals both before the first infusion (vehicle control) and for each infusion rate at the time of maximum hemodynamic effect. Quantification of selepressin, AVP, or NE in plasma samples was performed using validated liquid chromatography with tandem mass spectrometric detection for selepressin and AVP and validated liquid chromatography with colorimetric detection for NE. All of the animals treated with selepressin, AVP, or NE were exposed in a dose-dependent manner, with no difference between A and NA animals. The maximum selepressin plasma concentrations (mean ± standard deviation) were 329±52 and 367±48 ng/mL for A and NA animals, respectively, for AVP they were 122±27 and 100±46.2 ng/mL for A and NA, respectively, and for NE they were 301±126 and 345±164 ng/mL for A and NA, respectively.

[5] = healthy dogs; ref unpublished results; cited from earlier work
[6] = healthy rats; ref unpublished results; cited from earlier work
healthy dogs = settings: cited from earlier work
[7] = non-atherosclerotic (NA) rabbits
[8] = atherosclerotic (A) rabbits, SEM
[9] = non-atherosclerotic (NA) rabbits, SEM

| SMILES | electrocardiogram abnormalities (including ST segment elevation) [1] | serum aspartate aminotransferase activity vs baseline ([2]; atherosclerotic (A) rabbits) | serum aspartate aminotransferase activity vs baseline [2, 7] | Log ED50, aortic blood flow (ABF) [3, 8] | Log ED50, diastolic arterial pressure (DAP) [3, 8] | Log ED50, heart rate (HR) [3, 8] | Log ED50, mean arterial pressure (MAP) [3, 8] | Log ED50, stroke volume (SV) [3, 8] | Log ED50, systolic arterial pressure (SAP) [3, 8] | Log ED50, mean arterial pressure (MAP) [3, 7] | Log ED50, aortic blood flow (ABF) [3, 9] | Log ED50, diastolic arterial pressure (DAP) [3, 9] | Log ED50, heart rate (HR) [3, 9] | Log ED50, stroke volume (SV) [3, 9] | Log ED50, systolic arterial pressure (SAP) [3, 9] | Cmax [4] | Log ED50, mean arterial pressure (MAP) [3, 9] | half-life [5] | half-life [6] | coronary ischemic liability (healthy dogs) |
| --- | --- | --- | --- | --- | --- | --- | --- | --- | --- | --- | --- | --- | --- | --- | --- | --- | --- | --- | --- | --- |
| NC(=O)CC[C@@H]1NC(=O)[C@H](Cc2ccccc2)NC(=O)[C@H](Cc2ccc(O)cc2)NC(=O)[C@@H](N)CSSC[C@@H](C(=O)N2CCC[C@H]2C(=O)N[C@@H](CCCN=C(N)N)C(=O)NCC(N)=O)NC(=O)[C@H](CC(N)=O)NC1=O [AVP, arginine vasopressin] | No electrocardiogram abnormalities | not significantly different from baseline | not significantly different from baseline | −8.4±0.2 log(ng.kg^-1.min^-1) | −8.7±1.1 log(ng.kg^-1.min^-1) | −8.5±0.5 log(ng.kg^-1.min^-1) | −8.6±1.4 log(ng.kg^-1.min^-1) | −7.9±5.1 log(ng.kg^-1.min^-1) | −8.6±3.2 log(ng.kg^-1.min^-1) | No fit | −8.1±0.5 log(ng.kg^-1.min^-1) | −10.0±7.5 log(ng.kg^-1.min^-1) | −8.6±0.2 log(ng.kg^-1.min^-1) | −7.5±5.9 log(ng.kg^-1.min^-1) | −6.6±1.9 log(ng.kg^-1.min^-1) | 122 ± 27 ng/mL |  |  |  |  |
| NC[C@H](O)c1ccc(O)c(O)c1 [NE, norepinephrine] | Some premature ventricular beats |  |  | −6.2±0.7 log(ng.kg^-1.min^-1) | −5.8±0.4 log(ng.kg^-1.min^-1) | −7.0 ±1.2 log(ng.kg^-1.min^-1) | −5.7±0.3 log(ng.kg^-1.min^-1) | −5.4±0.4 log(ng.kg^-1.min^-1) |  |  | −6.5±0.4 log(ng.kg^-1.min^-1) | −6.0±0.3 log(ng.kg^-1.min^-1) | −6.9±0.9 log(ng.kg^-1.min^-1) | −6.5±0.4 log(ng.kg^-1.min^-1) | −6.1±0.2 log(ng.kg^-1.min^-1) |  | −6.1±0.3 log(ng.kg^-1.min^-1) |  |  |  |
| CC[C@H](C)[C@@H]1NC(=O)[C@H](Cc2ccccc2)NC(=O)[C@@H](N)CSSC[C@@H](C(=O)N2CCC[C@H]2C(=O)N[C@@H](CCCNC(C)C)C(=O)NCC(N)=O)NC(=O)[C@H](CC(N)=O)NC(=O)[C@H](CCCC(N)=O)NC1=O [Selepressin, selepressin] (H-CFI[Aad](NH2)NCP[Orn(iPr)]G-NH2; disulfide 1-6) | No electrocardiogram abnormalities | not significantly different from baseline | not significantly different from baseline |  |  |  |  |  |  |  |  |  |  |  |  | 329 ± 52 ng/mL |  | ~30 min | approximately 20 min | no relevant coronary ischemic liability |
